Assay results as given in patent publication US6642256B2, “Piperidine derivatives as subtype selective N-Methyl-D-Aspartate antagonists” (Warner-Lambert Company LLC, priority 2000, dated 2003).

Assays:
NR1A/NR2B NMDA receptor = NR1A/NR2B NMDA receptor (Rattus norvegicus, UniProt P35439+Q00960); test: Electrophysiological NR1A/NR2B assay in Xenopus oocytes (two-electrode voltage clamp); type: cell-based; details: Table 1; oocytes expressing NR1A/NR2B, currents activated by glutamate and glycine
Source text: I. Electrophysiological assays at NMDA receptor subunits (in vitro):
(i) Preparation of subunit RNA's:
cDNA clones encoding the NR1A, NR2A, NR2B, and NR2C rat NMDA receptor subtypes were used. (See, Moriyoshi et al., Nature (Lond.), 1991;354:31-37; Kutsuwada et al., Nature (Lond.), 1992;358:36-41; Monyer et al., Science (Washington, D.C.) 1992;256:1217-1221; Ikeda et al., FEBS Lett. 1992;313: 34-38; Ishii et al., J. Biol. Chem., 1993;268:2836-2843 for details of these clones or their mouse homologs). The clones were transformed into appropriate host bacteria and plasmid preparations were made with conventional DNA purification techniques. A sample of each clone was linearized by restriction enzyme digestion […] was synthesized with T3 RNA polymerase. The cRNA was diluted to 400 ng/μl and stored in 1 μl aliquots at −80° C. until injection.
(ii) The Xenopus oocyte expression system: […]
Electrical recordings were made using a conventional two-electrode voltage clamp (Dagan TEV-200) over periods ranging between 3 to 21 days following injection. […] Inhibitory potency of the novel antagonists of this invention was assessed on responses elicited by fixed concentrations of glutamate and glycine agonists, by measuring reductions in current induced by progressively increasing concentrations of invention compounds. […]

[1] = test system: 6-Hydroxydopamine-lesioned rats; test: 6-OHDA lesioned rat assay (potentiation of L-DOPA-induced contraversive rotation); type: in vivo; details: Table 1; po; statistically significant increase in contraversive rotations versus L-DOPA alone (L-DOPA methyl ester 10 mg/kg SC)
Source text: b. The 6-OHDA Lesioned Rat Assay (6-OHDA):
The 6-OHDA model is used to test compounds of the invention for anti-Parkinsonism activity.
(i) 6-OHDA lesioned rat assay protocol:
6-Hydroxydopamine-lesioned rats were used (see Ungerstedt U, Arbuthnott G W: “Quantitative recording of rotational behavior in rats after 6-hydroxy-dopamine lesions of the nigrostraiatal dopamine system”, Brain Res., 1971;24(3):485-493). Adult male Sprague-Dawley rats were anesthetized with chloral hydrate, and unilateral lesions of the nigrostriatal dopamine system were accomplished by infusion of 8 μg of 6-hydroxydopamine HBr (6-OHDA) into the right medial forebrain bundle. Rats were pretreated 30 minutes before surgery with desipramine HCl 25 mg/kg intraperitoneally (IP) to protect noradrenergic neurons, and pargyline 25 mg/kg IP to potentiate the effects of 6-OHDA. A minimum of 3 weeks after surgery, the rotational behavior induced by apomorphine HCL 50 μg/kg administered subcutaneously (SC) was assessed.
(ii) Measurement of animal behavior:
Rotational behavior was measured using an automatic rotometer system (Rotorat Rotational Activity System, MED Associates, Georgia, Vt.). Antiparkinsonian activity was assessed as the ability of the invention compounds to potentiate the contraversive rotation induced by L-DOPA methyl ester, dosed at 10 mg/kg SC, over a 6-hour period. […]

NR1A/NR2B NMDA receptor, sequence (Q00960 27-1482, other chains not shown): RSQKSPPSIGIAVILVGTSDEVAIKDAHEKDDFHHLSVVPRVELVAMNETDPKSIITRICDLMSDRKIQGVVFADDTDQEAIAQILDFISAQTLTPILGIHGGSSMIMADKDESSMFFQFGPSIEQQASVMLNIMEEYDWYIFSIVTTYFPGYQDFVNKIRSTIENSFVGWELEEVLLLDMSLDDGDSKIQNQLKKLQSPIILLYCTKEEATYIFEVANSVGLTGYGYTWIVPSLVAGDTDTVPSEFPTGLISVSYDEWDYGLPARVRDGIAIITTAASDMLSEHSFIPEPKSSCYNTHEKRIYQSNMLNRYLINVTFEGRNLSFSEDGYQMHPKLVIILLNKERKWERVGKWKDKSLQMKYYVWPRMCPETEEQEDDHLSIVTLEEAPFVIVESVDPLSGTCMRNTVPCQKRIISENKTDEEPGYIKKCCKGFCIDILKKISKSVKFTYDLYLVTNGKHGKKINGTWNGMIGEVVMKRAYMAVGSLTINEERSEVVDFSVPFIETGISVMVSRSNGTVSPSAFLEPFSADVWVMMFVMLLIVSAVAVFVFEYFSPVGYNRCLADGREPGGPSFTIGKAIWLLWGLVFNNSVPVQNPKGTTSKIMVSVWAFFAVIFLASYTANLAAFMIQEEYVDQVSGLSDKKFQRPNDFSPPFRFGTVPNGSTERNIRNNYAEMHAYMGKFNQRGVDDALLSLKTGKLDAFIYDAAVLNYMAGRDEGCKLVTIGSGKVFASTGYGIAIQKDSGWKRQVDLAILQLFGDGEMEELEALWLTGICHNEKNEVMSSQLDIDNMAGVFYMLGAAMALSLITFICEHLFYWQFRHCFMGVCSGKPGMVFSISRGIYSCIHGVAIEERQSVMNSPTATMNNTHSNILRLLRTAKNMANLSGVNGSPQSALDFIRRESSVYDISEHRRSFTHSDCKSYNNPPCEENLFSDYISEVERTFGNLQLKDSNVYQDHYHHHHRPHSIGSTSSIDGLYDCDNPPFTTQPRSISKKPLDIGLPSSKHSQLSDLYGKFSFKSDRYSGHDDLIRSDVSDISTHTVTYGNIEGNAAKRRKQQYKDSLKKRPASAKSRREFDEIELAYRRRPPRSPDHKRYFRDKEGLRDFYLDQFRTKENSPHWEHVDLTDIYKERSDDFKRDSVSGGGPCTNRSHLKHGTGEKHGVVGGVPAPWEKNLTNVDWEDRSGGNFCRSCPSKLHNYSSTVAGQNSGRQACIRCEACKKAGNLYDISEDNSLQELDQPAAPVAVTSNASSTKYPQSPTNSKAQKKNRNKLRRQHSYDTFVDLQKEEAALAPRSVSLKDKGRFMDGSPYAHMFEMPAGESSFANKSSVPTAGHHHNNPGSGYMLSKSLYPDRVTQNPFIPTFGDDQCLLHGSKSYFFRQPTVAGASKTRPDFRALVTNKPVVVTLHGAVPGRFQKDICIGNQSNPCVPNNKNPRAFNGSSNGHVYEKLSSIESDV

SMILES	IC50 (NR1A/NR2B NMDA receptor)	6-OHDA (mg/kg), minimum effective dose (MED) [1]
O=c1[nH]c2ccc(C3=NOC(CN4CCC(Cc5ccccc5)CC4)C3)cc2o1 (racemic) [Example 1, 6-[5-(4-Benzylpiperidin-1-ylmethyl)-4,5-dihydroisoxazol-3-yl]-3H-benzoxazol-2-one]	0.08 µM	>10 (po) mg/kg
O=c1[nH]c2ccc(C3=NOC(CN4CCC(Cc5ccc(F)cc5)CC4)C3)cc2o1 (single isomer, unassigned; (-)) [Example 4b, (−)-6-{5-[4-(4-Fluorobenzyl)piperidin-1-ylmethyl]4,5-dihydroisoxazol-3-yl}-3H-benzoxazol-2-one]	–	>30 (po) mg/kg
